Assay results as given in publication PMC6292453 (Biochemical Journal, 2018).

Target: T1, P450ZoGa (CYP236A2, WP_013995999) (Zobellia galactanivorans, UniProt G0L713)
T1 sequence (G0L713 1-387): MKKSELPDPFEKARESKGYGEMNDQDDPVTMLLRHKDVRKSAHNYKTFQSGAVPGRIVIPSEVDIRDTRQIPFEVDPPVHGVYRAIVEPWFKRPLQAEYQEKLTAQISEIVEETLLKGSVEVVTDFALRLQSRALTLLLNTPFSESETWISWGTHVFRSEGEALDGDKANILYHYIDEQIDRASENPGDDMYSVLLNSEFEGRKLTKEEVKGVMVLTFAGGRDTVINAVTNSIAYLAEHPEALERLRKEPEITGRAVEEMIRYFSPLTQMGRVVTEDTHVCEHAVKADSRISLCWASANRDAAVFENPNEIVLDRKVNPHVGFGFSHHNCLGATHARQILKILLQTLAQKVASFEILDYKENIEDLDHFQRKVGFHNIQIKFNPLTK
Assay: crystal structure of soaked complex
Assay type: binding

- Kd: 980 ± 120 µM
SMILES: COC[C@H]1OC(O)[C@H](O)[C@@H](O)[C@H]1O (stereo partly drawn) [G6Me, 6-O-methyl-D-galactose]
